Data from patent US9511055B2, “Angiotensin in treating brain conditions” (TARIX PHARMACEUTICALS LTD., priority 2012, dated 2016).

Legend:
Type in all cases: in vivo
[1] = tested on: MCAO rat model of ischemic stroke; test: Forelimb placement test after tMCAO; conditions: for forelimb placing test performance vs control: Example 1, continuous s.c. Alzet pump
Description: (§1) For the purposes of this example, Transient middle cerebral artery occlusion (tMCAO) procedure Day is defined as “Day 1” in this study. On the day of surgery anesthesia were induced with 4% isoflurane in a mixture of 70% N2O and 30% O2 and maintained with 1.5-2% isoflurane.
(§2) The tMCAO procedures were performed according to the method described R. Schmid-Elsaesser et al. Briefly, the right CCA (Common Carotid Artery) was exposed through a midline neck incision and carefully dissected free from surrounding nerves and fascia—from its bifurcation to the base of the skull. The occipital artery branches of the ECA (External Carotid Artery) were then isolated, and these branches were dissected and coagulated. The ECA was dissected further distally and coagulated along with the terminal lingual and maxillary artery branches, which was then divided. The ICA (Internal Carotid Artery) was isolated and carefully separated from the adjacent vagus nerve, and the pterygopalatine artery was ligated close to its origin with a 5-0 nylon suture (SMI, Belgium). Next, a 4-0 silk suture was tied loosely around the mobilized ECA stump, and a 4 cm length of 4-0 monofilament nylon suture (the tip of the suture was blunted by using a flame, and the suture was coated with polylysine, prior to insertion) was inserted through the proximal ECA into the ICA and thence into the circle of Willis, effectively occluding the MCA. The surgical wound was closed and the animals were returned to their cages to recover from anesthesia. One hour and a half after occlusion rats were re-anesthetized, the monofilament was withdrawn to allow reperfusion, the surgical wound was closed and rats were returned to their cages.
(§3) Animals were subjected to a modified Modified Neurological Rating Scale (mNRS) at 24 hours post reperfusion. Only animals with an overall score of ≧10 are included in this study. Animals were allocated into the test groups, according to the mNRS results on day 2, in order to have similar distribution of rats performance between groups. Started on day 2, 24 hours post-surgery, each animal is implanted subcutaneously with osmotic Alzet pump and is treated by continuous PanCyte administration (2.5 mg/ml or 25 mg/ml in PBS; SEQ ID NO:22).
The limb placing tests were divided into both forelimb and hindlimb tests. For the forelimb-placing test, the examiner held the rat close to a tabletop and scored the rat's ability to place the forelimb on the tabletop in response to whisker, visual, tactile, or proprioceptive stimulation. Similarly, for the hindlimb placing test, the examiner assessed the rat's ability to place the hindlimb on the tabletop in response to tactile and proprioceptive stimulation. […]

[2] = tested on: MCAO rat model of ischemic stroke; test: Body swing test after tMCAO; conditions: for body swing test performance vs control: continuous s.c. Alzet pump; for body swing test performance vs vehicle control / body swing test performance level: Example 2, 28 days; for body swing test performance level: Day 49
Description: as §1, §2, §3
The rat was held approximately one inch from the base of its tail. It was then elevated to an inch above a surface of a table. The rat was held in the vertical axis, defined as no more than 10° to either the left or the right side. A swing was recorded whenever the rat moved its head out of the vertical axis to either side. Before attempting another swing, the rat had to return to the vertical position for the next swing to be counted. Twenty (20) total swings were counted. A normal rat typically has an equal number of swings to either side. Following focal ischemia, rats tend to swing to the contralateral side (left side in this example). Body swing scores are expressed as a percentage of rightward over total swings. […] Four groups were analyzed in this test, a control group (receiving only PBS for 49 days), a group receiving 50 μg/kg PanCyte for 49 days, a group receiving 500 μg/kg PanCyte for 49 days, and a group receiving 50 μg/kg PanCyte for 14 days.
Animals were subjected to a modified Modified Neurological Rating Scale (mNRS) at 24 hours post reperfusion. Only animals with an overall score of ≧10 were included in this study. Animals were allocated into the test groups, according to the mNRS results on day 2, in order to have similar distribution of rats performance between groups. Starting on day 2, 24 hours post-surgery, animals in groups 4, 5 and 7 were implanted subcutaneously with an osmotic Alzet pump and treated with either 500 μg/kg TXA127 (SEQ ID NO:1), 500 μg/kg PanCyte (SEQ ID NO:22), or 50 μg/kg Linear PanCyte (SEQ ID NO:6). Animals in groups 2, 3 and 6 received 500 μg/kg or 1,000 μg/kg TXA127 or 500 μg/kg PanCyte, administered subcutaneously via daily injection. […]

[3] = tested on: MCAO rat model of ischemic stroke; test: Stepping test (forelimb akinesia) after tMCAO; conditions: for stepping test performance vs control: day 15; for stepping test performance vs vehicle control: all experimental conditions (s.c. daily injection or Alzet pump, 28 days), by Day 21 post-surgery
Description: as §1, §2, §3
Animals were tested for forelimb akinesia in a stepping test. The animal was held with its hind limbs fixed with one hand and the forelimb not monitored with the other, while the unrestrained fore-paw touches a table. The number of adjusting steps were counted while the animal was moved sideways along the table surface (85 cm in approximately five seconds), in the forehand & backhand direction for both forelimbs. […] Four groups were analyzed in this test, a control group (receiving only PBS for 49 days), a group receiving 50 μg/kg PanCyte for 49 days, a group receiving 500 μg/kg PanCyte for 49 days, and a group receiving 50 μg/kg PanCyte for 14 days.
(§4) Animals were subjected to a modified Modified Neurological Rating Scale (mNRS) at 24 hours post reperfusion. Only animals with an overall score of ≧10 were included in this study. Animals were allocated into the test groups, according to the mNRS results on day 2, in order to have similar distribution of rats performance between groups. Starting on day 2, 24 hours post-surgery, animals in groups 4, 5 and 7 were implanted subcutaneously with an osmotic Alzet pump and treated with either 500 μg/kg TXA127 (SEQ ID NO:1), 500 μg/kg PanCyte (SEQ ID NO:22), or 50 μg/kg Linear PanCyte (SEQ ID NO:6). Animals in groups 2, 3 and 6 received 500 μg/kg or 1,000 μg/kg TXA127 or 500 μg/kg PanCyte, administered subcutaneously via daily injection. Animals in group 1 were treated with a daily subcutaneous injection of a PBS (vehicle).
Animals were tested for forelimb akinesia in a stepping test (ST). The animal was held with its hind limbs fixed with one hand and the forelimb not to be monitored with the other, while the unrestrained fore-paw touches the table. […]

[4] = tested on: MCAO rat model of ischemic stroke; test: Modified Neurological Rating Scale (mNRS) evaluation after tMCAO; conditions: Example 1, continuous s.c. Alzet pump
Description: as §1
as §2, with “cages. […]” for “cages.”
The Modified Neurological Rating Scale (mNRS) was administered by an individual who was unaware of the drug/dose given (blind test). […] Four groups were analyzed in this test, a control group (receiving only PBS for 49 days), a group receiving 50 μg/kg PanCyte for 49 days, a group receiving 500 μg/kg PanCyte for 49 days, and a group receiving 50 μg/kg PanCyte for 14 days. […]

[5] = tested on: MCAO rat model of ischemic stroke; test: Overall post-stroke performance in tMCAO rats, Example 2 comparison; conditions: 50 μg/kg Linear PanCyte as compared to 500 μg/kg of PanCyte
Description: The animal model, surgical procedures, and animal care procedures and conditions were as described above for Example 1 unless otherwise specified.
as §4
In addition to the performance benefits discussed above, blood flow and blood vessel diameter was measured using Laser Doppler, according to known protocols, in each non-Alzet group on Day 50.

## CCC(C)C1NC(=O)C(NC(=O)C(NC(=O)C(CCCNC(=N)N)NC(=O)C(N)CC(=O)O)C(C)C)CSCC(C(=O)O)NC(=O)C(Cc2c[nH]cn2)NC1=O (centres unmarked) [PanCyte, Asp^1-Arg^2-Val^3-Ser^4-Ile^5-His^6-Cys^7 (SEQ ID NO: 22)]
[1]; 50 μg/kg for 14 days, from day 15
  forelimb placing test performance vs control: performed significantly better than control animals beginning on day 15
[1]; each PanCyte group (50 μg/kg 49 days, 500 μg/kg 49 days, 50 μg/kg 14 days), day 29, continued to day 36
  forelimb placing test performance vs control: increased performance on this test by day 29
[1]; other treatment groups (50 μg/kg 49 days, 500 μg/kg 49 days), trending before day 29
  forelimb placing test performance vs control: did not reach statistical significance until day 29
[2]; Example 1, 50 μg/kg for 14 days, from day 29
  body swing test performance vs control: showed statistical significance beginning on day 29
[2]; Example 1, all treatment groups, from day 8
  body swing test scores vs control: trend toward improved scores beginning on day 8
[2]; Example 1, each PanCyte group (50 μg/kg 49 days, 500 μg/kg 49 days, 50 μg/kg 14 days), day 36
  body swing test performance vs control: improved performance on the test by day 36
[2]; 500 μg/kg daily s.c. injection, Day 28
  body swing test performance vs vehicle control: significant improvement in performance by Day 28
[2]; PanCyte Alzet group, 500 μg/kg s.c. Alzet pump, Day 21
  body swing test performance vs vehicle control: showed improvement by Day 21
[2]; PanCyte Alzet group, 500 μg/kg s.c. Alzet pump, Day 28
  body swing test performance vs vehicle control: significant improvement in performance by Day 28
[3]; Example 1, 50 μg/kg for 14 days, continuous s.c. Alzet pump, trending toward improvement
  stepping test performance vs control: did not reach statistically significant levels
[3]; Example 1, 50 μg/kg for 49 days, continuous s.c. Alzet pump
  stepping test performance vs control: performed significantly better than controls
[3]; Example 1, 500 μg/kg for 49 days, continuous s.c. Alzet pump, trending toward improvement
  stepping test performance vs control: did not reach statistically significant levels
[3]; Example 1, each PanCyte group (50 μg/kg 49 days, 500 μg/kg 49 days, 50 μg/kg 14 days), continuous s.c. Alzet pump, day 22, continued through day 36
  stepping test performance (number of adjusting steps) vs control: increased performance of rats by day 22
[3]; Example 2
  stepping test performance vs vehicle control: significantly improved the performance of treated rats
[4]; 50 μg/kg for 49 days, days 8 and 15
  mNRS performance vs control: statistically improved performance on days 8 and 15
[4]; 500 μg/kg for 49 days, day 22
  mNRS performance vs control: statistically improved performance on day 22
[4]; each PanCyte group (50 μg/kg 49 days, 500 μg/kg 49 days, 50 μg/kg 14 days), day 29 and 36
  mNRS performance vs control: improved performance on the test by day 29

## Asp^1-Arg^2-Val^3-Ser^4-Ile^5-His^6-Cys^7 (SEQ ID NO:6) (DRVSIHC) [Linear PanCyte, non-cyclized form of PanCyte]
[5]
  effectiveness compared with PanCyte: almost equally effective
[1]; Example 2, 50 μg/kg, s.c. Alzet pump, 28 days, particularly from Day 35 onward
  forelimb placing test performance compared with the other experimental groups: best performance
[2]; 50 μg/kg s.c. Alzet pump, Day 21
  body swing test performance vs vehicle control: showed improvement by Day 21
[2]; 50 μg/kg s.c. Alzet pump, Day 28
  body swing test performance vs vehicle control: significant improvement in performance by Day 28
[2]; 50 μg/kg s.c. Alzet pump
  body swing test performance level: near-normal (uninjured) level
[3]; Example 2, 50 ug/kg, s.c. Alzet pump, 28 days, vs 500 μg/kg TXA127 or PanCyte
  stepping test results compared with ten times as much TXA127 or PanCyte: substantially equivalent
[3]; Example 2
  stepping test performance vs vehicle control: significantly improved the performance of treated rats

## Asp^1-Arg^2-Val^3-Tyr^4-Ile^5-His^6-Pro^7 (SEQ ID NO: 1) (DRVYIHP) [TXA127]
[2]; 500 μg/kg daily s.c. injection, before Day 35
  body swing test performance vs vehicle control: did not show significant results until Day 35
[2]; 500 μg/kg s.c. Alzet pump, Day 21
  body swing test performance vs vehicle control: showed improvement by Day 21
[2]; 500 μg/kg s.c. Alzet pump, Day 28
  body swing test performance vs vehicle control: significant improvement in performance by Day 28
[2]; 1,000 μg/kg daily s.c. injection, Day 21
  body swing test performance vs vehicle control: showed improvement by Day 21
[2]; 1,000 μg/kg daily s.c. injection, Day 28
  body swing test performance vs vehicle control: significant improvement in performance by Day 28
[2]; TXA 1,000 g/kg group, daily s.c. injection
  body swing test performance level: near-normal (uninjured) level
[2]; TXA Alzet group, 500 μg/kg s.c. Alzet pump
  body swing test performance level: near-normal (uninjured) level
[3]; Example 2
  stepping test performance vs vehicle control: significantly improved the performance of treated rats
